Measured values taken from patent publication US20240156790A1, “COMPOUNDS, COMPOSITIONS, AND METHODS FOR MODULATING FERROPTOSIS AND TREATING EXCITOTOXIC DISORDERS” (THE TRUSTEES OF COLUMBIA UNIVERSITY IN THE CITY OF NEW YORK, priority 2018, published 2024).

Key:
[1] = Human; value marked ^1, Hofmans et al., 2016; cited from earlier work
[2] = TH-2-31 IP PK Study, 40 mg/kg; format: in vivo, C57BL/6 mice; conditions: 40 mg/kg IP, up to eight hours
Method: C57BL/6 mice (8-weeks of age and ˜25 g weight) were weighed before injection and divided into groups of 2 male and female mice per cage. TH-2-31 was dissolved in 5% DMSO/95% of 65% v/v of 25% w/v 2-hydroxypropyl-3-cyclodextrin (Cayman Chemical) dissolved in 20% EtOH, 30% v/v Poly(ethylene glycol)-400 (Sigma Aldrich 202398), 5% v/v Tween 80 (Fluka 59924) to create a 4 mg/mL solution. The same formulation without TH-2-31 was used as a vehicle control. The solution was sterilized using a […] Steriflip filter unit (Thomas Scientific 1189Q46). Mice were dosed IP and euthanized by CO2 asphyxiation for 3 min at 0, 1, 2, 4, and 8 h after administration. To ensure that the vehicle was well-tolerated 4 mice were treated with vehicle and euthanized 4 h after administration. ˜0.5 mL of blood was collected via cardiac puncture and immediately put in K3 EDTA microtubes ([…] 41.1504.105) and kept on ice. Organs were harvested, placed in Eppendorf tubes, and frozen on dry ice. Blood samples were centrifuged for 10 min at 2,100×g at 4° C., then plasma was transferred to a clean tube and frozen on dry ice. […] After drying, the samples were resuspended in 100 μL of methanol and analyzed by UPLC-MS described below. The concentration of TH-2-31 was determined against a standard curve with a linear fit and the data plot in GraphPad Prism 9 and fit with a one phase decay. […]

Compound: CCOC(=O)c1ccc(NC2CCCCC2)c(N)c1 [Fer-1, Ferrostatin-1, reference compound]
- Microsomal Stability t1/2 [1]: 6.9 ± 0.2 min

Compound: Cc1noc(-c2cnc(NC3CCCCC3)c(NC3CCCCC3)c2)n1 [TH-2-31, N^2,N^3-dicyclohexyl-5-(3-methyl-1,2,4-oxadiazol-5-yl)pyridine-2,3-diamine]
- accumulation in plasma and brain, in words [2]: stably accumulate at micromolar concentrations in plasma and brain even eight hours after
